Test results as given in patent US12535483B2, “Norovirus-binding peptide” (Kao Corporation, priority 2019, dated 2026).

Key:
[1] = molecular target: GII.3 VLP; assay: KD value by bio-layer interferometry (BLI, BLItz), peptide on SA chip, GII.3 VLP; assay type: binding, norovirus GII.3 TCH strain; conditions: for Kd: GII.3 VLP 1 and 0.1 mg/mL, 100 μM peptide bound to SA chip, KD calculated from Ka and Kd values; for ka / kd: GII.3 VLP; for ka: association 90 sec; for kd: dissociation in PBS 60 sec
Experimental: (§1) <Calculation of KD Value by Bio-Layer Interferometry: BLI Method>
(§2) The apparatus used was BLItz™ (manufactured by ForteBio). The tip of SA chip (manufactured by ForteBio) was kept in contact with purified water for 1 minute for hydration and was then kept in contact with a 1% BSA aqueous solution for 1 hour for blocking. The SA chip subjected to blocking treatment was set to the measuring unit of the BLItz™ main body, and measurement was performed according to the program shown in Table 14. The peptides of SEQ ID NOs: 43, 48, 52, 59, 131, 143, 150, 154, 155, 156, 163, and 172 were used, and the concentration was adjusted to 100 µM. The concentrations of each of the GII.3 and GII.17 VLPs were adjusted to 1 and 0.1 mg/mL. The measurement data were analyzed using the attached software, and the KD value was calculated based on the Ka and Kd values.

[2] = molecular target: GII.17 VLP; assay: KD value by bio-layer interferometry (BLI, BLItz), peptide on SA chip, GII.17 VLP; assay type: binding, norovirus GII.17 Saitama strain; conditions: for Kd: GII.17 VLP 1 and 0.1 mg/mL, 100 μM peptide bound to SA chip, KD calculated from Ka and Kd values; for ka / kd: GII.17 VLP; for ka: association 90 sec; for kd: dissociation in PBS 60 sec
Experimental: as §1, §2

Sequence: ECMGRRWMSS [No. 154]
- Kd [1]: 0.123 µM
- ka [1]: 141000 M⁻¹ s⁻¹
- kd [1]: 0.0173 s⁻¹
- Kd [2]: 0.628 µM
- ka [2]: 49500 M⁻¹ s⁻¹
- kd [2]: 0.00205 s⁻¹

Sequence: GCVGDLYCSA [No. 172]
- Kd [1]: 69.3 µM
- ka [1]: 189 M⁻¹ s⁻¹
- kd [1]: 0.0131 s⁻¹

Sequence: ICSSWFPSVH [No. 48]
- Kd [1]: 0.0303 µM
- ka [1]: 810000 M⁻¹ s⁻¹
- kd [1]: 0.0246 s⁻¹
- Kd [2]: 0.0766 µM
- ka [2]: 1.28e+06 M⁻¹ s⁻¹
- kd [2]: 0.0978 s⁻¹

Sequence: KYRATICHTV [No. 52]
- Kd [1]: 0.0138 µM
- ka [1]: 747000 M⁻¹ s⁻¹
- kd [1]: 0.0103 s⁻¹
- Kd [2]: 0.0179 µM
- ka [2]: 1.29e+06 M⁻¹ s⁻¹
- kd [2]: 0.0232 s⁻¹

Sequence: NFRVPIRFTH [No. 131]
- Kd [1]: 157 µM
- ka [1]: 1660 M⁻¹ s⁻¹
- kd [1]: 0.262 s⁻¹

Sequence: SVMVTRSLFG [No. 163]
- Kd [1]: 0.00766 µM
- ka [1]: 1.03e+06 M⁻¹ s⁻¹
- kd [1]: 0.00786 s⁻¹
- ka [2]: 110000 M⁻¹ s⁻¹
- kd [2]: 0.0185 s⁻¹

Sequence: VCVDNDISMS [No. 150]
- Kd [1]: 0.437 µM
- ka [1]: 27000 M⁻¹ s⁻¹
- kd [1]: 0.0118 s⁻¹
- Kd [2]: 2510 µM
- ka [2]: 102 M⁻¹ s⁻¹
- kd [2]: 0.255 s⁻¹

Sequence: VELFLLTSSC [No. 155]
- Kd [1]: 803 µM
- ka [1]: 115 M⁻¹ s⁻¹
- kd [1]: 0.0926 s⁻¹

Sequence: VVGFGRRSLF [No. 156]
- Kd [1]: 1.06 µM
- ka [1]: 67300 M⁻¹ s⁻¹
- kd [1]: 0.0713 s⁻¹
- Kd [2]: 234 µM
- ka [2]: 398 M⁻¹ s⁻¹
- kd [2]: 0.0931 s⁻¹

Sequence: YRRSKSEIFV [No. 59]
- Kd [1]: 0.00887 µM
- ka [1]: 805000 M⁻¹ s⁻¹
- kd [1]: 0.00714 s⁻¹
- Kd [2]: 0.383 µM
- ka [2]: 134000 M⁻¹ s⁻¹
- kd [2]: 0.0511 s⁻¹

Sequence: YVIRNSDRHN [No. 43]
- Kd [1]: 0.0672 µM
- ka [1]: 1.18e+06 M⁻¹ s⁻¹
- kd [1]: 0.0793 s⁻¹
- Kd [2]: 234 µM
- ka [2]: 822 M⁻¹ s⁻¹
- kd [2]: 0.192 s⁻¹

Sequence: YVVASKSNRL [No. 143]
- Kd [1]: 0.0135 µM
- ka [1]: 325000 M⁻¹ s⁻¹
- kd [1]: 0.0044 s⁻¹
